Test results as given in PubChem BioAssay AID2060506 (Molecular Pharmacology Branch, DTP, NCI, 2025).

System: 598228-144-R-J1-PDC complex spheroid viability
Assay: Anticancer human tumor 598228-144-R-J1-PDC patient-derived serous endometrial adenocarcinoma cell line growth inhibition [GQUAD]
Conditions: for IC50: curve of first compound; for viability, T/C: stronger effect = lower value; active = viability on the fitted dose curve at most 10% of control; inactive = the rest
How it was run: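 Tumor cells were grown as complex spheroids with HUVEC endothelial cells and mesenchymal stem cells as stroma. G-quadruplex stabilizers were combined with targeted agents over half-log dilutions from near the clinical Cmax, or from 10 microM.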

[1] = second compound 0.0316 µM, first compound 0.0316 µM
[2] = second compound 0.0316 µM, first compound 0.1 µM
[3] = second compound 0.0316 µM, first compound 0.316 µM
[4] = second compound 0.0316 µM, first compound 1 µM
[5] = second compound 0.0316 µM, first compound 3.16 µM
[6] = second compound 0.0316 µM, first compound 10 µM
[7] = second compound 0.1 µM, first compound 0.0316 µM
[8] = second compound 0.1 µM, first compound 0.1 µM
[9] = second compound 0.1 µM, first compound 0.316 µM
[10] = second compound 0.1 µM, first compound 1 µM
[11] = second compound 0.1 µM, first compound 3.16 µM
[12] = second compound 0.1 µM, first compound 10 µM
[13] = second compound 0.316 µM, first compound 0.0316 µM
[14] = second compound 0.316 µM, first compound 0.1 µM
[15] = second compound 0.316 µM, first compound 0.316 µM
[16] = second compound 0.316 µM, first compound 1 µM
[17] = second compound 0.316 µM, first compound 3.16 µM
[18] = second compound 0.316 µM, first compound 10 µM
[19] = second compound 1 µM, first compound 0.0316 µM
[20] = second compound 1 µM, first compound 0.1 µM
[21] = second compound 1 µM, first compound 0.316 µM
[22] = second compound 1 µM, first compound 1 µM
[23] = second compound 1 µM, first compound 3.16 µM
[24] = second compound 1 µM, first compound 10 µM
[25] = second compound 3.16 µM, first compound 0.0316 µM
[26] = second compound 3.16 µM, first compound 0.1 µM
[27] = second compound 3.16 µM, first compound 0.316 µM
[28] = second compound 3.16 µM, first compound 1 µM
[29] = second compound 3.16 µM, first compound 3.16 µM
[30] = second compound 3.16 µM, first compound 10 µM
[31] = second compound 10 µM, first compound 0.0316 µM
[32] = second compound 10 µM, first compound 0.1 µM
[33] = second compound 10 µM, first compound 0.316 µM
[34] = second compound 10 µM, first compound 1 µM
[35] = second compound 10 µM, first compound 3.16 µM
[36] = second compound 10 µM, first compound 10 µM
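Also: spheroids exposed to the agents for one week before reading.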
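For viability, T/C in this document: percent of vehicle DMSO control viability so 100% = untreated growth.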

Nc1ccn(C2OC(CO)C(O)C2(F)F)c(=O)n1 (stereo unspecified) + CN(C)c1ccc(Nc2c3ccc(NC(=O)CCN4CCCC4)cc3nc3cc(NC(=O)CCN4CCCC4)ccc23)cc1
91.7 nM: IC50 (second compound 3.16 µM)
inactive: viability, T/C [1] 49.8% | viability, T/C [2] 42.5% | viability, T/C [3] 39.4% | viability, T/C [4] 36.3% | viability, T/C [5] 39.8% | viability, T/C [6] 37.5% | viability, T/C [7] 52.4% | viability, T/C [8] 41.9% | viability, T/C [9] 38.6% | viability, T/C [10] 43.2% | viability, T/C [11] 57.3% | viability, T/C [12] 49.5% | viability, T/C [13] 49.3% | viability, T/C [14] 51.6% | viability, T/C [15] 43.3% | viability, T/C [16] 43.2% | viability, T/C [17] 45.8% | viability, T/C [18] 43.6% | viability, T/C [19] 60.8% | viability, T/C [20] 51.3% | viability, T/C [21] 35.4% | viability, T/C [22] 33.1% | viability, T/C [23] 41.5% | viability, T/C [24] 43.4% | viability, T/C [25] 58.8% | viability, T/C [26] 45.5% | viability, T/C [27] 49.7% | viability, T/C [28] 37.5% | viability, T/C [29] 45.6% | viability, T/C [30] 36.4% | viability, T/C [31] 44.1% | viability, T/C [32] 28.5% | viability, T/C [33] 29.6% | viability, T/C [34] 26.2% | viability, T/C [35] 24% | viability, T/C [36] 26.9%
38.9 nM: IC50 (second compound 0.316 µM)
< 31.6 nM: IC50 (second compound 0.0316 µM) | IC50 (second compound 0.1 µM) | IC50 (second compound 10 µM)
75.5 nM: IC50 (second compound 1 µM)

CC1COCCN1c1cc(-c2ccnn2C)c2ccnc(-c3ccn[nH]3)c2n1 (stereo unspecified) + CN(C)c1ccc(Nc2c3ccc(NC(=O)CCN4CCCC4)cc3nc3cc(NC(=O)CCN4CCCC4)ccc23)cc1
88.2 nM: IC50 (second compound 0.1 µM)
93.5 nM: IC50 (second compound 0.316 µM)
114 nM: IC50 (second compound 3.16 µM)
inactive: viability, T/C [1] 86% | viability, T/C [2] 45.6% | viability, T/C [3] 40.3% | viability, T/C [4] 43.3% | viability, T/C [5] 49.2% | viability, T/C [6] 45.2% | viability, T/C [7] 79.7% | viability, T/C [8] 46.1% | viability, T/C [9] 45.5% | viability, T/C [10] 40.5% | viability, T/C [11] 42.4% | viability, T/C [12] 43.5% | viability, T/C [13] 76.3% | viability, T/C [14] 51.3% | viability, T/C [15] 32.7% | viability, T/C [16] 43.9% | viability, T/C [17] 45.5% | viability, T/C [18] 34.6% | viability, T/C [19] 70.6% | viability, T/C [20] 63.8% | viability, T/C [21] 50.5% | viability, T/C [22] 50% | viability, T/C [23] 45.7% | viability, T/C [24] 38.9% | viability, T/C [25] 74.6% | viability, T/C [26] 49.6% | viability, T/C [27] 40% | viability, T/C [28] 40.6% | viability, T/C [29] 43.4% | viability, T/C [30] 25.9% | viability, T/C [31] 73.5% | viability, T/C [32] 29.5% | viability, T/C [33] 20.5% | viability, T/C [34] 29.7% | viability, T/C [35] 27.6% | viability, T/C [36] 14.9%
58.1 nM: IC50 (second compound 10 µM)
87.9 nM: IC50 (second compound 0.0316 µM)
721 nM: IC50 (second compound 1 µM)

Cc1[nH]c2ccccc2c1CCNCc1ccc(/C=C/C(=O)NO)cc1 + CN(C)c1ccc(Nc2c3ccc(NC(=O)CCN4CCCC4)cc3nc3cc(NC(=O)CCN4CCCC4)ccc23)cc1
54.1 nM: IC50 (second compound 0.316 µM)
43 nM: IC50 (second compound 1 µM)
38.7 nM: IC50 (second compound 0.0316 µM)
44.3 nM: IC50 (second compound 3.16 µM)
active: viability, T/C [3] 1.08% | viability, T/C [9] 0.89% | viability, T/C [15] 0.69% | viability, T/C [21] 2.25% | viability, T/C [27] 0.99% | viability, T/C (second compound 10 µM, first compound 0.0999 µM) 8.01% | viability, T/C [33] 0.44%
19.6 nM: IC50 (second compound 10 µM)
48.5 nM: IC50 (second compound 0.1 µM)
inactive: viability, T/C (second compound 0.0316 µM, first compound 0.000999 µM) 113% | viability, T/C (second compound 0.0316 µM, first compound 0.00316 µM) 94.7% | viability, T/C (second compound 0.0316 µM, first compound 0.00999 µM) 103% | viability, T/C [1] 46.6% | viability, T/C (second compound 0.0316 µM, first compound 0.0999 µM) 29.1% | viability, T/C (second compound 0.1 µM, first compound 0.000999 µM) 91.7% | viability, T/C (second compound 0.1 µM, first compound 0.00316 µM) 107% | viability, T/C (second compound 0.1 µM, first compound 0.00999 µM) 86% | viability, T/C [7] 64.7% | viability, T/C (second compound 0.1 µM, first compound 0.0999 µM) 25.8% | viability, T/C (second compound 0.316 µM, first compound 0.000999 µM) 114% | viability, T/C (second compound 0.316 µM, first compound 0.00316 µM) 96.8% | viability, T/C (second compound 0.316 µM, first compound 0.00999 µM) 95.7% | viability, T/C [13] 70.7% | viability, T/C (second compound 0.316 µM, first compound 0.0999 µM) 26.9% | viability, T/C (second compound 1 µM, first compound 0.000999 µM) 96.9% | viability, T/C (second compound 1 µM, first compound 0.00316 µM) 120% | viability, T/C (second compound 1 µM, first compound 0.00999 µM) 91.2% | viability, T/C [19] 59.1% | viability, T/C (second compound 1 µM, first compound 0.0999 µM) 23.5% | viability, T/C (second compound 3.16 µM, first compound 0.000999 µM) 99.9% | viability, T/C (second compound 3.16 µM, first compound 0.00316 µM) 103% | viability, T/C (second compound 3.16 µM, first compound 0.00999 µM) 87.9% | viability, T/C [25] 66.7% | viability, T/C (second compound 3.16 µM, first compound 0.0999 µM) 13.9% | viability, T/C (second compound 10 µM, first compound 0.000999 µM) 82.3% | viability, T/C (second compound 10 µM, first compound 0.00316 µM) 102% | viability, T/C (second compound 10 µM, first compound 0.00999 µM) 70.5% | viability, T/C [31] 33.6%
